Two compounds from PMC2890037 (Biochemistry, 2010) can be followed below.

Common to all, as to assay type: biochemical
The target in test [1] is T1, triosephosphate isomerase (TIM), wildtype yeast (Saccharomyces cerevisiae, UniProt P00942).
T1 sequence (P00942 2-248): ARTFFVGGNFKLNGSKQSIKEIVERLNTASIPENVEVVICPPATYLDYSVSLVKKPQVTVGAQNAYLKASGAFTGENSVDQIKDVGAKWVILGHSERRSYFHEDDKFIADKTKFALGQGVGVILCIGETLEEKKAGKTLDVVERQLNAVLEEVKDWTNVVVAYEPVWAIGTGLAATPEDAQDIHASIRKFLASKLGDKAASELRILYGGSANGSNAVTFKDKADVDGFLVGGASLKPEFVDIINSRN
In words: steady-state kinetics of isomerization. The settings on record: read-out: Km ^b mM.

Test [2] has as its target T1, triosephosphate isomerase (TIM), wildtype yeast.
Test [3] deals with T2, triosephosphate isomerase (TIM), K12G mutant yeast (Saccharomyces cerevisiae, UniProt P00942, K12G).
T2 sequence (P00942 2-248 K12G): T1 sequence (P00942 2-248) with K11G

Substitutions are numbered along the chain they refer to.

Turning to `O=C[C@H](O)COP(=O)(O)O` [GAP, (R)-glyceraldehyde 3-phosphate], the Michaelis constant (Km) – broadly, the substrate concentration at which the rate is half of its maximum – in test [1] was 1.1 ± 0.2 mM.
Take `O=C(O)COP(=O)(O)O` [PGA, 2-phosphoglycolate]: the values for the Ki in test [2] and in test [3] were 19 ± 4 µM and 1100 ± 200 µM, respectively.
